The results in this text go back to patent US7541457B2, “Amphiphilic trisulfonated porphyrazines for photodynamic applications in medicine” (Universite de Sherbrooke, priority 2003, dated 2009).

The subject of data set [1] is EMT-6 murine mammary tumor cells. Kind of data set: Phototoxicity (cellular photoinactivation, MTT) against EMT-6 tumor cells in vitro. The data set is classed as cell-based. The note with it: for LD90 (light dose for 90% cell kill): dye 1 μM, red light 660-700 nm.
Data set [2] deals with EMT-6 mammary tumours. Kind of data set: PDT of EMT-6 mammary tumors in BALB/c mice. It counts as in vivo. As for the experimental part: All experiments were performed on male BALB/c mice (18-22g) (Charles River Breeding Laboratories, Montreal, Quebec, Canada) bearing two EMT-6 mammary tumours. The experiments were conducted following a protocol approved by the Canadian Council on Animal Care and the in-house ethics committee. Animals were allowed free access to water and food throughout the experiments. Before tumour implantation, hair on the hind legs and the backs of the mice was removed by shaving and chemical depilating (Nair, Whitehall, Mississauga, Canada). The two tumors were implanted on the backs of the animals by intradermal injection of 2-3×10^5 EMT-6 cells suspended in 0.05 ml Waymouth's growth medium.
For PDT tumor response studies, mice were used 7-10 d after tumor cell inoculation (mean external tumor size 4.5-6.0 mm diameter and approximately 2.5 mm thickness). The mice were given an intravenous administration of […] of porphyrazine dye in PBS (0.2 mL/20 g) through the tail vein. […] Mice were examined daily for 20 days following PDT in order to assess tumor response (necrosis) and recurrence.
At the highest dye dose over 50% of the animals responded with complete tumor regression as observed 3 weeks after treatment.

Data set [3] concerns EMT-6 mammary tumours. As to the kind of experiment: PDT of EMT-6 mammary tumors in BALB/c mice. It counts as in vivo. The settings on record: for Necrosis (flat and necrotic tissue within 2 days post-PDT): light 24 h later, 670 nm, 400 J/cm^2.
Data set [4] concerns Vascular Endothelial Growth Factor evoked plasma extravasation. Kind of data set: PDT of VEGF-165 evoked plasma extravasation (Evans Blue) in rat retina. The data set is classed as in vivo, Wistar rats. As for the experimental part: (§1) The long established Evans Blue technique was used to measure plasma extravasation. Under anesthesia with a 10 mg/kg mixture of Ketamine and Xylazine, 250 g male wistar rats were injected with 45 mg/kg Evans Blue through a canula placed in the jugular vein. Ten minutes later, the experimental procedure was started. At the end of experiments, the animals were sacrificed and their eyes were enucleated. Both eyes combined were placed into 300 μl of formamide and incubated at 70° C. for 18 hours. Following incubation the supernatant absorbance at 620 nm was read with a spectrophotometer. A standard curve was used to determine the concentration of Evans Blue, which was expressed in μg/ml.
Rats anesthetized with a mixture of Ketamine and Zylazine (10 mg/kg) were injected with 2 μl of VEGF-165 prepared in saline, directly into the vitreous, using a Hamilton micro syringe. A period of 10 min was allotted for the plasma extravasation response to occur. After the response to VEGF-165 developed, the eyes were enucleated and subjected to spectrophotometric analysis for Evan's Blue.
[…] […] Subsequently the eyes were enucleated and tested for Evan's Blue levels.

In data set [5] the test system is plasma extravasation in STZ-diabetic rat retinal vessels. As to the kind of experiment: PDT of plasma extravasation (Evans Blue) in STZ-diabetic rat retina. The note with it: for Inhibition of plasma extravasation: 0.5 μmole/kg. The data set is classed as in vivo, Wistar rats. As for the experimental part:
as §1
After an overnight fast, diabetes was induced with a single 65 mg/kg intraperitoneal injection of streptozotocin (STZ) in 10 mM citrate buffer, pH 4.5. Animals that served as non diabetic controls received an equivalent amount of citrate buffer alone. One week later, just prior to experimentation, blood glucose levels were measured to determine diabetic status. Only rats with blood glucose higher than 20 mM were deemed STZ-diabetic.
Conscious rats were injected with the photosensitizing drug through the tail vein six hours prior to irradiation with red light onto the retina. […] Subsequently the eyes were enucleated and tested for Evan's Blue levels.

Regarding “zinc trisulfophthalocyanine [ZnPcS3, reference compound]”, the entries for the “LD90 (light dose for 90% cell kill)” value in data set [1] (6 h incubation) and in data set [1] (24 h incubation) were 5.9 J · cm^−2 and 2.2 J · cm^−2, respectively.

Turning to “Zinc tri-(4-sulfobenzo)-5-mono-[(1-hexynyl)naphtho]-porphyrazine [Compound 46]”, in data set [2] (all dye doses used, 0.5-1 μmole/kg), the “Tumor response (flattening and necrosis) within 48 h after PDT” value was “All treated tumors responded”. The Mortality result in data set [2] (any of the dye and light doses used) is “No mortality occurred”; in data set [2] (dye dose 1 μmole/kg), 0%; in data set [3] (dye dose 0.5 μmole/kg), 0%; in data set [3] (dye dose 0.75 μmole/kg), 0%. Also, the “Necrosis (flat and necrotic tissue within 2 days post-PDT)” value in data set [2] (dye dose 1 μmole/kg i.v., light 24 h later, 670 nm, 400 J/cm^2) was 100%; in data set [3] (dye dose 0.5 μmole/kg i.v.) it was 100%; in data set [3] (dye dose 0.75 μmole/kg i.v.) it was 100%. For the same substance, the “Cure (absence of a palpable tumor 3 weeks post-PDT)” value was found to be 0% in data set [3] (dye dose 0.5 μmole/kg) and 20% in data set [3] (dye dose 0.75 μmole/kg). In addition, the “Inhibition of plasma extravasation” value in data set [4] (VEGF-165 injected rats, 0.5 μmole/kg, red light 680 nm, 25 mW/cm^2, 20 J/cm^2) is “completely inhibited plasma extravasation to control levels”; in data set [5] (light 6 h after drug, 45 J/cm2, total fluence 3 J), “completely inhibited plasma extravasation”; in data set [5] (diabetic rats, red light 680 nm, 25 mW/cm^2, 20 J/cm^2) it was “completely inhibited plasma extravasation to control levels”. The “Plasma extravasation after PDT” value is reported as “reach control levels” in data set [4] (VEGF-165 treated STZ-diabetic rats, 5 hour interval between photosensitizer administration and light); “reduced plasma extravasation to the level of control non-diabetic rats” in data set [5] (STZ-diabetic rats, interval drug to light extended from 1 hour up to 6 hours). Moreover, in data set [5] (among the five molecules tested, light 6 h after drug), the “Relative potency as inhibitor of plasma extravasation” value is given as “most potent inhibitor of plasma extravasation”. In addition, the results for the “LD90 (light dose for 90% cell kill)” value in data set [1] (6 h incubation) and in data set [1] (24 h incubation) were 4.1 J · cm^−2 and 1.2 J · cm^−2, respectively. In data set [1] (compounds 45-49, 6 h and 24 h incubation), the “Relative phototoxicity within the alkylyl series” value was “highest phototoxicity”.
